Data on 20 compounds can be found in US9944618B2, “Inhibiting neurotransmitter reuptake” (Mayo Foundation for Medical Education and Research, priority 2013, dated 2018).

Like-named read-outs stand apart in the source and are kept apart here.

In general, IC50 refers to the point on the concentration scale where inhibition reaches its midpoint. In general, Ki refers to the equilibrium dissociation constant of an inhibitor or competing ligand from its target. The pKa is the pH at which an ionisable group is half protonated.

For one data set, the target named is CYP3A4 (Homo sapiens (Human), UniProt P08684). Put plainly: Cytochrome P450 inhibition assay, recombinant CYP3A4 (BFC substrate). The data set is classed as in vitro ADME. Particulars: recombinant enzyme.
Data set [1] has as its target human dopamine transporter (Homo sapiens (Human), UniProt Q01959). The data set can be described thus: Human DAT (dopamine transporter) uptake assay. The data set is classed as cell-based. To be noted: read-out: hDAT Ki. In a few lines: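 Uptake inhibition was measured in HEK293F cells transfected with human DAT, plated at ~60,000 cells/well and settled ≥3 h at 37 °C. Compounds came from 10 mM DMSO stocks. Read-out was uptake of a fluorescent neurotransmitter transporter dye in HBSS with 0.02 M HEPES, with dye level given as % of vendor reconstitution; n=3.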

Data set [2] in a line: pKa of basic centres (Table 1). The data set is classed as physicochemical.
For data set [3], the target named is human norepinephrine transporter (Homo sapiens (Human), UniProt P23975). Put plainly: Human NET (norepinephrine transporter) uptake assay. To be noted: read-out: hNET Ki. The data set is classed as cell-based. An outline of the steps: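 HEK293F cells transfected with human NET were thawed, plated at about 60,000 cells/well and held at 37 °C for at least 3 h. Compounds came from 10 mM DMSO stocks, with nomifensine as control, in 1×HBSS/0.02 M HEPES. Uptake was followed with a neurotransmitter transporter dye, dosed as % of vendor reconstitution, in triplicate.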

In another data set the target is CYP2D6 (Homo sapiens (Human), UniProt P10635). Put plainly: Cytochrome P450 inhibition assay, recombinant CYP2D6 (MAMC substrate). Particulars: recombinant enzyme. The data set is classed as in vitro ADME.
Data set [4] has as its target human serotonin transporter (Homo sapiens (Human), UniProt P31645). The data set can be described thus: Human SERT (serotonin transporter) uptake assay. The format is cell-based. Particulars: read-out: hSERT Ki. An outline of the steps:
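HEK293F cells transfected with human SERT, about 60,000 per well, settled for ≥3 h at 37° C before compound addition. Uptake was followed with a fluorescent transporter dye in HBSS with 0.02 M HEPES. Background came from 10 μM fluoxetine, nomifensine was the control, n=3.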

Another data set has as its target hERG (Homo sapiens (Human), UniProt Q12809). Put plainly: Human ERG (hERG) assay, hERG currents in hERG-expressing CHO cells. To be noted: hERG-expressing CHO cells. The format is cell-based. For orientation: Block of hERG is tested as a sign of cardiac risk.
[5] abbreviates: first base, e.g., an aliphatic primary, secondary, or tertiary amine, read-out: pKa (Base 1).
[6] abbreviates: second base in the same molecule (if present), read-out: pKa (Base 2).
Setting [7] is: first base, e.g., an aliphatic primary, secondary, or tertiary amine.

Chain of human norepinephrine transporter (P23975 whole entry): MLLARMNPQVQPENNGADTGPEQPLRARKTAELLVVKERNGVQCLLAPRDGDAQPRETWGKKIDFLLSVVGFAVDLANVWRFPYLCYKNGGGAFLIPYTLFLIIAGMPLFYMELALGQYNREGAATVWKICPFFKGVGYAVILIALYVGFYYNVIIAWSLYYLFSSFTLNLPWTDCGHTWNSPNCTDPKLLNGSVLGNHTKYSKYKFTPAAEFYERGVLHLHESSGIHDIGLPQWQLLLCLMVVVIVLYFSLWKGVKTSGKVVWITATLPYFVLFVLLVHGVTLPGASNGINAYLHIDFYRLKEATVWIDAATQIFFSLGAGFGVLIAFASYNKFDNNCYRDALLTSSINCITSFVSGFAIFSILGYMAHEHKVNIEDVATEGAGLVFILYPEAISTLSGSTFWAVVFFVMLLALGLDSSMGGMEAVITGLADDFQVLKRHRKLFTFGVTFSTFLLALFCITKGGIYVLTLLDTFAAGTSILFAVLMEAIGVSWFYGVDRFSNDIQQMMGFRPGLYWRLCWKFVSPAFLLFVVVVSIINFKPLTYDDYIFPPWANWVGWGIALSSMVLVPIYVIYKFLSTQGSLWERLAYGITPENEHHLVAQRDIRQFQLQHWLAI
Chain of hERG (Q12809 whole entry): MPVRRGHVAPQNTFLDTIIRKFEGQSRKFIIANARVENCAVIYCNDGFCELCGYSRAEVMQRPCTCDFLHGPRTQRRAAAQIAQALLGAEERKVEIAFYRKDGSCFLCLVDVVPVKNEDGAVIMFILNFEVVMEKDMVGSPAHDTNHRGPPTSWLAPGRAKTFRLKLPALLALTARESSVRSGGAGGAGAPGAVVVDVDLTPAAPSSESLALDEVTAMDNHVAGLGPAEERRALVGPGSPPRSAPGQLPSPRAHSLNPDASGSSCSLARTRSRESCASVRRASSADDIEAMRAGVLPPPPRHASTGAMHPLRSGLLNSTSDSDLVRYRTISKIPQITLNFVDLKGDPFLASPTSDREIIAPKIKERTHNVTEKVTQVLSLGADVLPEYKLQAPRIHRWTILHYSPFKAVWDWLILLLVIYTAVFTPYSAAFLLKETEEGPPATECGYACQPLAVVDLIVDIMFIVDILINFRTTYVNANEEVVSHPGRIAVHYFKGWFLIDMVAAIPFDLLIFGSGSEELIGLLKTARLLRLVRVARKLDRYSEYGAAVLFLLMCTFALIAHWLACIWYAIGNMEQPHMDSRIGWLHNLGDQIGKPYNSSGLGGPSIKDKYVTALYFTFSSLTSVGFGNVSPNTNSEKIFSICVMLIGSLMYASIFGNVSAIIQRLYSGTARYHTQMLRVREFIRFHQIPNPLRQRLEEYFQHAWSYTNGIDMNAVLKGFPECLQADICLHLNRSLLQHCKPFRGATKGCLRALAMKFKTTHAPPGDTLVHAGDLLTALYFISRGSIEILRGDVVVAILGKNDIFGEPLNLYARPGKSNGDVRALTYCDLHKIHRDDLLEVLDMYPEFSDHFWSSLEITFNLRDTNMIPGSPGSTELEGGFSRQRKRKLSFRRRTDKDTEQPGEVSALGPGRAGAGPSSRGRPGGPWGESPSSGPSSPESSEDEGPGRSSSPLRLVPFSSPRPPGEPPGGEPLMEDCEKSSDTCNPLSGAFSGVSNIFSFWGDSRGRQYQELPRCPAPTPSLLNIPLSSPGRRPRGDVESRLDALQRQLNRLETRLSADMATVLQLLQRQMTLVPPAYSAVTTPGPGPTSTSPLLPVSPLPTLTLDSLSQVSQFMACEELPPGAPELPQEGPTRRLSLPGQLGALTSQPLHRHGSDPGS
Chain of human serotonin transporter (P31645 whole entry): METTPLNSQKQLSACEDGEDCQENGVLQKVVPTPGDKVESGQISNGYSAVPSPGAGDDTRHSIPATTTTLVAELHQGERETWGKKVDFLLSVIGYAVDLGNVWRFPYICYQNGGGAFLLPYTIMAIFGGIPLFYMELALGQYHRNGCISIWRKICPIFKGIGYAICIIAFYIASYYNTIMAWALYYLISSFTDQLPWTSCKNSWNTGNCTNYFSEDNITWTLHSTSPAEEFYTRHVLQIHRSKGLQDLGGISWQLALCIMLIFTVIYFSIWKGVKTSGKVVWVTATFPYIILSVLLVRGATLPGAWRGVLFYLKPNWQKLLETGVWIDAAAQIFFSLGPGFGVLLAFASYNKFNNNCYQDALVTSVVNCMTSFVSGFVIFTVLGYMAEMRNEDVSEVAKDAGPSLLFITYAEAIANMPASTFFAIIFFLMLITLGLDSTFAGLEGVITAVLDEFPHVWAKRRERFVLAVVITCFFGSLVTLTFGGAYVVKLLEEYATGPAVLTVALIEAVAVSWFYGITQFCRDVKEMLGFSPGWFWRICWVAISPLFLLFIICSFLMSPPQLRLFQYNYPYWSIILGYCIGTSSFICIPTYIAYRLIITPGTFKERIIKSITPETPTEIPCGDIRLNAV
Chain of CYP2D6 (P10635 whole entry): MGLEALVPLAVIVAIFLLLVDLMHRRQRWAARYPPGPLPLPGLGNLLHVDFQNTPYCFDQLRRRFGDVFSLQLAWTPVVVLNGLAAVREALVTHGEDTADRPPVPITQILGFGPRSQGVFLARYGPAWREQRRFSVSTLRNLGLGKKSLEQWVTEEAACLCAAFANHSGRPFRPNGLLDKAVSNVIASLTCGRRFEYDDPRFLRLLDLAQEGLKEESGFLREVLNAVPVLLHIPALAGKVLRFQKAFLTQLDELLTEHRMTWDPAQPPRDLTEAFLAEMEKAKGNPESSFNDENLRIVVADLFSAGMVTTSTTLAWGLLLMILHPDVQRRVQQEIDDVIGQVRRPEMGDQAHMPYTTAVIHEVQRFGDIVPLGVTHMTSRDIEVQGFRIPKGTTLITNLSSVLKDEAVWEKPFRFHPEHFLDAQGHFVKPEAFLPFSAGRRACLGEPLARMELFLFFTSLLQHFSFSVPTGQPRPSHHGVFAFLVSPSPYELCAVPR
Chain of CYP3A4 (P08684 whole entry): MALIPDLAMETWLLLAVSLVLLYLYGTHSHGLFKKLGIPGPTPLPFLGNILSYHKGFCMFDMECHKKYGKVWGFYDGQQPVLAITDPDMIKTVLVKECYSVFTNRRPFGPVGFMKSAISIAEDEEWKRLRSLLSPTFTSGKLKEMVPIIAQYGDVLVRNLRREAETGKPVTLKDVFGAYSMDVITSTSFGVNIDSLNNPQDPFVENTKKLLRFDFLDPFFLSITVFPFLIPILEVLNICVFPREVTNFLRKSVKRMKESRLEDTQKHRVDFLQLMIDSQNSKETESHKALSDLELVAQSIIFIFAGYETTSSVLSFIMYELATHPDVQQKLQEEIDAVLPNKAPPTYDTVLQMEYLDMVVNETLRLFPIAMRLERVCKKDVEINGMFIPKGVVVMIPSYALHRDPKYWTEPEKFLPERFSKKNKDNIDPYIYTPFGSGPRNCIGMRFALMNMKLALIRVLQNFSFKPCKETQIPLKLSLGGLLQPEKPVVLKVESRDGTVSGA
Chain of human dopamine transporter (Q01959 whole entry): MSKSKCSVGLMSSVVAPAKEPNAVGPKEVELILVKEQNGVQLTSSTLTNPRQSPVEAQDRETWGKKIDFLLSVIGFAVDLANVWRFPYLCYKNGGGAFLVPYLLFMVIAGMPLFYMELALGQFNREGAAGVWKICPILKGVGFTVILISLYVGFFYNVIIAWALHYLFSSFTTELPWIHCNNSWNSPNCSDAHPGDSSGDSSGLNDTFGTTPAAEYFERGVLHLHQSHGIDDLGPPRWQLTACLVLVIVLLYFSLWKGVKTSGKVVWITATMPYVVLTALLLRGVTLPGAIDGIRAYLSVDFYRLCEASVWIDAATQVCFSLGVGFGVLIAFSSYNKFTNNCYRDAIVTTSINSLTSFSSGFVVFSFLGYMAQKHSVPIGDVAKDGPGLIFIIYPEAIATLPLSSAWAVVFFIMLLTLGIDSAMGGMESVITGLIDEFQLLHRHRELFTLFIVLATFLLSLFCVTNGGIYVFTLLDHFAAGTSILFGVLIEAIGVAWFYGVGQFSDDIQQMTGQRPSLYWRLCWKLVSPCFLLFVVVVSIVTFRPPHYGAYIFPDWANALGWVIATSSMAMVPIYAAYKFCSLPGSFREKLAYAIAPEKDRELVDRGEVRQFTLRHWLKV
Protocol for CYP3A4: Recombinant enzymes, 3A4 and 2D6, generated using the ABL yeast expression system were used. […] The assay mixture also included K2HPO4 (pH 7.4; conc. 0.1 M) and NADPH (conc. 1 mM). The incubation time was 30 minutes, and the reference inhibitor was A-naphthoflavone. For CYP2D6, the enzyme amount was 2 pmol per well, and the substrate (7-methoxy-4-(aminomethyl)-coumarin; MAMC) was used at 20 μM. The assay mixture also included K2HPO4 (pH 7.4; conc. 0.1 M) and NADPH (conc. 0.06 mM). The incubation time was 35 minutes, and the reference inhibitor was quinidine.
Briefly, 0.6 μL of serially diluted compound was added to 75 μL water. 10 μL of diluted compound in water was then added to each assay plate. 20 μL of a K2HPO4, enzyme, and substrate mixture was added. After 10 minutes of room temperature pre-incubation, 10 μL of NADPH was added, and the plates were placed at 37° C. for 30 or 35 minutes depending on the enzyme being tested. After the incubation was complete, 20 μL of 0.1% Tris/ACN was added to the plate. The plate was read on a FluorStar fluorescence plate reader.

For the compound `CN(C)CC(C)(c1ccc2ccccc2c1)C(O)c1ccccc1` (centres unmarked) [Compound 86], the IC50 at CYP3A4 worked out at 20000 nM; at CYP2D6 it was 290 nM; at hERG it was 850 nM. Moreover, the Ki in data set [1] was found to be 9.9 nM; in data set [3] it was 16.7 nM; in data set [4], 2.7 nM. In data set [2] (setting [5]), the pKa worked out at 9.2.

Regarding `CNC[C@H](c1ccc2ccccc2c1)[C@H](N)c1ccccc1` [Compound 87], the IC50 worked out at 940 nM at CYP3A4, 66 nM at CYP2D6 and 17000 nM against hERG. Besides, the Ki in data set [1] is 114 nM; in data set [3], 18.1 nM; in data set [4], 6.1 nM. Besides, the pKa was 9.8 in data set [2] (setting [5]) and 8.5 in data set [2] (setting [6]).

In the case of `CN(C)C[C@H](c1ccc2ccccc2c1)[C@H](OCCO)c1ccccc1` [Compound 89], the results for the IC50 on CYP3A4, on CYP2D6 and at hERG were 20000 nM, 1800 nM and 6600 nM, respectively. Moreover, the Ki is 25 nM in data set [1], 21.4 nM in data set [3] and 1.8 nM in data set [4]. In addition, the pKa in data set [2] (setting [5]) was 8.9.

As for `CNC[C@H](c1ccc2ccccc2c1)[C@H](O)c1cncc(OC)c1` [Compound 92], the IC50 on CYP3A4 is 20000 nM; at CYP2D6, 810 nM; against hERG it was 33000 nM. In addition, the Ki stood at 216 nM in data set [1], 28 nM in data set [3] and 9.3 nM in data set [4]. In addition, the values for the pKa in data set [2] (setting [5]) and in data set [2] (setting [6]) were 9.6 and 4.5, respectively.

Turning to `CNC[C@H](c1ccc(Cl)c(Cl)c1)[C@@H](O)c1cccc(NC(C)=O)c1` [Compound 94], the IC50 at CYP3A4 turned out to be 18000 nM; at CYP2D6, 3000 nM; against hERG, 33000 nM. The Ki in data set [1] turned out to be 52.6 nM; in data set [3], 32.8 nM; in data set [4] it was 367 nM. Also, the pKa in data set [2] (setting [5]) turned out to be 9.4.

Regarding `NC[C@H](c1ccc2ccccc2c1)[C@@H](O)c1ccncc1Cl` [Compound 95], the IC50 was 11000 nM on CYP3A4, 410 nM at CYP2D6 and 33000 nM on hERG. Moreover, the Ki in data set [1] was 30.7 nM; in data set [3], 33.5 nM; in data set [4], 36.9 nM. Also, in data set [2] (setting [5]), the pKa stood at 8.

For the compound `CNC[C@@H](c1ccc2ccccc2c1)[C@H](O)c1ccccc1F` [Compound 96], the IC50 was found to be 20000 nM at CYP3A4, 1100 nM at CYP2D6 and 33000 nM against hERG. Also, the Ki in data set [1] was 158 nM; in data set [3], 36.8 nM; in data set [4], 9.9 nM. In data set [2] (setting [5]), the pKa was 9.7.

Regarding `CNC[C@H](c1ccc(Cl)c(Cl)c1)[C@@H](O)c1ccccc1SC` [Compound 97], the IC50 came to 15000 nM at CYP3A4, 180 nM on CYP2D6 and 8000 nM at hERG. In addition, the inhibitory constant (Ki) is 22.6 nM in data set [1], 38.2 nM in data set [3] and 78.4 nM in data set [4]. Also, the pKa in data set [2] (setting [5]) is 9.4.

With `CNC[C@@H](c1ccc(Cl)c(Cl)c1)[C@H](O)c1cccc(NC(C)=O)c1` [Compound 98], the IC50 at CYP3A4 is 20000 nM; at CYP2D6, 850 nM; on hERG, 33000 nM. Also, the Ki in data set [1] is 216 nM; in data set [3], 38.8 nM; in data set [4], 167 nM. In addition, the pKa in data set [2] (setting [5]) came to 9.4.

For `CNC[C@@H](c1ccc2ccccc2c1)[C@H](O)c1ccccn1` [Compound 99], the figures for the IC50 at CYP3A4, on CYP2D6 and on hERG were at least 20000 nM, 3600 nM and 33000 nM, respectively. Also, the figures for the Ki in data set [1], in data set [3] and in data set [4] were 287 nM, 41 nM and 43.2 nM, respectively. Further, the pKa in data set [2] (setting [5]) came to 9.6; in data set [2] (setting [6]) it was 4.1.

With `CNC[C@H](c1ccc(Cl)c(Cl)c1)[C@@H](O)c1ccccc1-c1cccs1` [Compound 100], the IC50 on CYP3A4 was 8200 nM; at CYP2D6, 64 nM; at hERG, 21000 nM. The Ki in data set [1] was 27.4 nM; in data set [3] it was 43.8 nM; in data set [4], 361 nM. For the same compound, the pKa in data set [2] (setting [5]) turned out to be 9.4.

With `CNC[C@@H](c1ccc(Br)c(Cl)c1)[C@@H](O)c1ccccc1` [Compound 110], the IC50 was determined as 17000 nM on CYP3A4, 1900 nM at CYP2D6 and 6800 nM against hERG. The Ki came to 24 nM in data set [1], 142 nM in data set [3] and 677 nM in data set [4]. Moreover, the pKa in data set [2] (setting [5]) was found to be 9.4.

As for `NC[C@@H](c1ccc2ccccc2c1)C(O)c1ccncc1Cl` (some centres unmarked) [Compound 118], the IC50 on CYP3A4 was found to be 20000 nM; on CYP2D6, 3900 nM; against hERG, 24000 nM. Besides, the inhibition constant Ki in data set [1] stood at 139 nM; in data set [3], 252 nM; in data set [4], 36.6 nM. Besides, in data set [2] (setting [5]), the pKa came to 8.

Consider `CNCC(Cc1ccccc1C)c1ccc2ccccc2c1` (centres unmarked) [Compound 134], for which the values for the IC50 at CYP3A4, on CYP2D6 and against hERG were 9900 nM, 220 nM and 6200 nM, respectively. The Ki worked out at 56.8 nM in data set [1], 6 nM in data set [3] and 7.8 nM in data set [4]. The pKa in data set [2] (setting [5]) stood at 10.1.

As for `CNCC(Cc1ccc(C)s1)c1ccc2ccccc2c1` (centres unmarked) [Compound 139], the IC50 on CYP3A4 worked out at 13000 nM; at CYP2D6, 620 nM; on hERG, 3100 nM. Further, the results for the Ki in data set [1], in data set [3] and in data set [4] were 88.7 nM, 5 nM and 6.4 nM, respectively. In addition, in data set [2] (setting [5]), the pKa came to 10.

For the compound `CNC[C@H](Cc1ccccc1O)c1ccc2ccccc2c1` [Compound 140], the concentration for half-maximal inhibition (IC50) at CYP3A4 was determined as 20000 nM; on CYP2D6 it was 860 nM; on hERG, 6100 nM. Further, the figures for the inhibitory constant (Ki) in data set [1], in data set [3] and in data set [4] were 91.6 nM, 25.9 nM and 28.3 nM, respectively. Further, the pKa in data set [2] (setting [5]) was found to be 10.

Consider `CNC[C@H](c1ccc2ccccc2c1)[C@H](O)c1ccc2c(c1)OCCO2` [Compound 143], for which the values for the half-maximal inhibitory concentration (IC50) at CYP3A4, at CYP2D6 and against hERG were 7600 nM, 160 nM and 15000 nM, respectively. For the same compound, the Ki worked out at 106 nM in data set [1], 6.6 nM in data set [3] and 7.9 nM in data set [4]. In data set [2] (setting [5]), the pKa worked out at 9.7.

Consider `CNC[C@H](c1ccc2ccccc2c1)[C@H](Cl)c1ccccc1` [Compound 146], for which the IC50 at CYP3A4 worked out at 1300 nM; at CYP2D6 it was 92 nM; against hERG, 15000 nM. Moreover, the Ki was 144 nM in data set [1], 9.3 nM in data set [3] and 10.1 nM in data set [4]. Also, the pKa in data set [2] (setting [5]) was 9.5.

Consider `CNC[C@@H](c1ccc(Cl)c(Cl)c1)[C@@H](O)c1ccsc1` [Compound 153], for which the IC50 is 20000 nM on CYP3A4, 1400 nM on CYP2D6 and 1600 nM against hERG. The values for the Ki in data set [1], in data set [3] and in data set [4] were 33.8 nM, 3.9 nM and 7.5 nM, respectively. Also, the “pKa (Base 1)” value in data set [2] (setting [7]) is on record as 9.5.

Consider `CNC[C@@H](c1ccc(Cl)c(Cl)c1)[C@@H](O)c1cccc(SC)c1` [Compound 154], for which the IC50 is 6900 nM at CYP3A4, 290 nM on CYP2D6 and 2200 nM at hERG. Also, the results for the Ki in data set [1], in data set [3] and in data set [4] were 40.3 nM, 37.1 nM and 38.4 nM, respectively. Moreover, the “pKa (Base 1)” value in data set [2] (setting [7]) was 9.4.
